Test results as given in article PMC10150354, “Linearization of the Brevicidine and Laterocidine Lipopeptides Yields Analogues That Retain Full Antibacterial Activity” (Journal of Medicinal Chemistry, 2023).
In brackets after ≈: the same amount, converted by molar mass. *1 amine or outer side, *2 acyl side, *3 side chain or, on linkers, in order; H or OH if unused. Where a SMILES comes first, the peptide text is derived from it. [ ]: non-standard residue; d: D form. The star is where a group is joined. ξ: configuration not given here. X1 = C[C@@H](N=[N+]=[N-])[C@H](N[*:1])C(=O)[*:2]; Octanoyl(7-Me) = CC(C)CCCCCC(=O)*; Hexanoyl(4ξ-Me) = CCC(C)CCC(=O)*; dOrn = NCCC[C@@H](N)C(=O)O; Orn = NCCC[C@H](N)C(=O)O; Dap = NC[C@H](N)C(=O)O; Alloc = C=CCOC(=O)*

Key:
[1] = system: A. baumannii ATCC 17961; assay type: cell-based, Acinetobacter baumannii; details: microbroth dilution per CLSI, MHB, 18 h at 37 °C, visual inspection, three technical replicates
Summary of the method: (§1)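 MIC taken as the lowest concentration with no visible growth after 18 h, 37 °C, shaking, three technical replicates. Peptides were serially diluted in MHB and received cells from TSB cultures at OD600 ~0.5, diluted to 2 × 10^5 CFU/mL (kanamycin selection for the mcr-1 E. coli), following CLSI guidelines.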

[2] = system: E. coli ATCC 25922; assay type: cell-based, Escherichia coli; details: for MIC (µg/mL) against E. coli (ATCC 25922): (Supplement 2); for Antibacterial activity (MIC) E. coli ATCC 25922: microbroth dilution per CLSI, MHB, 18 h at 37 °C, visual inspection, three technical replicates
Summary of the method: as §1

[3] = system: E. coli (MCR-1); assay type: cell-based, Escherichia coli; details: microbroth dilution per CLSI, MHB, 18 h at 37 °C, visual inspection, three technical replicates, E. coli 25922 carrying mcr-1
Summary of the method: as §1

[4] = system: S. aureus USA300; assay type: cell-based, Staphylococcus aureus; details: microbroth dilution per CLSI, MHB, 18 h at 37 °C, visual inspection, three technical replicates
Summary of the method: as §1

[5] = system: P. aeruginosa PAO1; assay type: cell-based, Pseudomonas aeruginosa; details: microbroth dilution per CLSI, MHB, 18 h at 37 °C, visual inspection, three technical replicates
Summary of the method: as §1

[6] = system: K. pneumoniae ATCC 13883; assay type: cell-based, Klebsiella pneumoniae; details: microbroth dilution per CLSI, MHB, 18 h at 37 °C, visual inspection, three technical replicates
Summary of the method: as §1

SMILES	Antibacterial activity (MIC) A. baumannii ATCC 17961 [1] [µg/mL]	MIC (µg/mL) against E. coli (ATCC 25922) [2] [µg/mL]	Antibacterial activity (MIC) E. coli ATCC 25922 [2] [µg/mL]	Antibacterial activity (MIC) E. coli (MCR-1) [3] [µg/mL]	Antibacterial activity (MIC) S. aureus USA300 [4] [µg/mL]	Antibacterial activity (MIC) P. aeruginosa PAO1 [5] [µg/mL]	Antibacterial activity (MIC) K. pneumoniae ATCC 13883 [6] [µg/mL]
CCC(C)CCC(=O)N[C@H](CC(N)=O)C(=O)N[C@H](Cc1ccc(O)cc1)C(=O)N[C@H](Cc1c[nH]c2ccccc12)C(=O)N[C@H](CCCN)C(=O)N[C@@H](CCCN)C(=O)NCC(=O)N[C@H](CCCN)C(=O)N[C@@H](Cc1c[nH]c2ccccc12)C(=O)N[C@H](C(=O)N[C@H](C(=O)NCC(N)=O)[C@@H](C)CC)[C@@H](C)N=[N+]=[N-] (some centres unmarked) [Δ12LB (MeAbu9)-NH2 (60)] ({Hexanoyl(4ξ-Me)}-[dN][dY][dW][dOrn][Orn]G[dOrn]W[X1]IG-NH2)	2	8 (≈ 5.42 µM)	4	4	>32	4	2
CC[C@H](C)[C@H](NC(=O)[C@@H](NC(=O)[C@H](Cc1c[nH]c2ccccc12)NC(=O)[C@@H](CCCN)NC(=O)CNC(=O)[C@H](CCCN)NC(=O)[C@@H](CCCN)NC(=O)[C@@H](Cc1c[nH]c2ccccc12)NC(=O)[C@@H](Cc1ccc(O)cc1)NC(=O)[C@@H](CO)NC(=O)CCCCCC(C)C)[C@@H](C)O)C(=O)N[C@@H](CC(N)=O)C(=O)N[C@@H](C)C(=O)NCC(N)=O [LL(Ala12)-NH2 (40)] ({Octanoyl(7-Me)}-[dS][dY][dW][dOrn][Orn]G[dOrn]WTINAG-NH2)	8		8	8	>32	8	8
CCC(C)CCC(=O)N[C@H](CC(N)=O)C(=O)N[C@H](Cc1ccc(O)cc1)C(=O)N[C@H](Cc1c[nH]c2ccccc12)C(=O)N[C@H](CCCN)C(=O)N[C@@H](CCCN)C(=O)NCC(=O)N[C@H](CCCN)C(=O)N[C@@H](Cc1c[nH]c2ccccc12)C(=O)N[C@@H](CC(N)=O)C(=O)N[C@H](C(=O)NCC(N)=O)[C@@H](C)CC (some centres unmarked) [Δ12LB (Asn9)-NH2 (58)] ({Hexanoyl(4ξ-Me)}-[dN][dY][dW][dOrn][Orn]G[dOrn]WNIG-NH2)	16	4 (≈ 2.73 µM)	8	8	>32	2	16
CCC(C)CCC(=O)N[C@H](CC(N)=O)C(=O)N[C@H](Cc1ccc(O)cc1)C(=O)N[C@H](Cc1c[nH]c2ccccc12)C(=O)N[C@H](CCCN)C(=O)N[C@@H](CCCN)C(=O)NCC(=O)N[C@H](CCCN)C(=O)N[C@@H](Cc1c[nH]c2ccccc12)C(=O)N[C@@H](CCC(N)=O)C(=O)N[C@H](C(=O)NCC(N)=O)[C@@H](C)CC (some centres unmarked) [Δ12LB (Gln9)-NH2 (59)] ({Hexanoyl(4ξ-Me)}-[dN][dY][dW][dOrn][Orn]G[dOrn]WQIG-NH2)	16	8 (≈ 5.42 µM)	8	8	>32	2	16
CCC(C)CCC(=O)N[C@H](CC(N)=O)C(=O)N[C@H](Cc1ccc(O)cc1)C(=O)N[C@H](Cc1c[nH]c2ccccc12)C(=O)N[C@H](CCCN)C(=O)N[C@@H](CCCN)C(=O)NCC(=O)N[C@H](CCCN)C(=O)N[C@@H](Cc1c[nH]c2ccccc12)C(N)=O (some centres unmarked) [Δ9–12LB-NH2 (15)] ({Hexanoyl(4ξ-Me)}-[dN][dY][dW][dOrn][Orn]G[dOrn]W-NH2)	>32		>32	>32	>32	>32	>32
CC[C@H](C)[C@H](NC(=O)[C@H](Cc1ccccc1)NC(=O)[C@H](Cc1c[nH]c2ccccc12)NC(=O)[C@@H](CCCN)NC(=O)CNC(=O)[C@H](CCCN)NC(=O)[C@@H](CCCN)NC(=O)[C@@H](Cc1c[nH]c2ccccc12)NC(=O)[C@@H](Cc1ccc(O)cc1)NC(=O)[C@@H](CO)NC(=O)CCCCCC(C)C)C(=O)N[C@@H](CC(N)=O)C(=O)NCC(=O)NCC(N)=O [LL(Phe9)-NH2 (43)] ({Octanoyl(7-Me)}-[dS][dY][dW][dOrn][Orn]G[dOrn]WFINGG-NH2)	4	4 (≈ 2.4 µM)	4	4	>32	8	8
CC[C@H](C)[C@H](NC(=O)[C@H](Cc1c[nH]c2ccccc12)NC(=O)[C@H](Cc1c[nH]c2ccccc12)NC(=O)[C@@H](CCCN)NC(=O)CNC(=O)[C@H](CCCN)NC(=O)[C@@H](CCCN)NC(=O)[C@@H](Cc1c[nH]c2ccccc12)NC(=O)[C@@H](Cc1ccc(O)cc1)NC(=O)[C@@H](CO)NC(=O)CCCCCC(C)C)C(=O)N[C@@H](CC(N)=O)C(=O)NCC(=O)NCC(N)=O [LL(Trp9)-NH2 (45)] ({Octanoyl(7-Me)}-[dS][dY][dW][dOrn][Orn]G[dOrn]WWINGG-NH2)	4	4 (≈ 2.34 µM)	4	4	>32	16	4
CCC(C)CCC(=O)N[C@H](CC(N)=O)C(=O)N[C@H](Cc1ccc(O)cc1)C(=O)N[C@H](Cc1c[nH]c2ccccc12)C(=O)N[C@H](CCCN)C(=O)N[C@@H](CCCN)C(=O)NCC(=O)N[C@H](CCCN)C(=O)N[C@@H](Cc1c[nH]c2ccccc12)C(=O)N[C@H](C(=O)N[C@H](C(N)=O)[C@@H](C)CC)[C@@H](C)O (some centres unmarked) [Δ11–12LB-NH2 (11)] ({Hexanoyl(4ξ-Me)}-[dN][dY][dW][dOrn][Orn]G[dOrn]WTI-NH2)	8		4	4 to 8	>32	2	2
C=CCOC(=O)NC[C@H](NC(=O)[C@H](Cc1c[nH]c2ccccc12)NC(=O)[C@@H](CCCN)NC(=O)CNC(=O)[C@H](CCCN)NC(=O)[C@@H](CCCN)NC(=O)[C@@H](Cc1c[nH]c2ccccc12)NC(=O)[C@@H](Cc1ccc(O)cc1)NC(=O)[C@@H](CO)NC(=O)CCCCCC(C)C)C(=O)N[C@H](C(=O)N[C@@H](CC(N)=O)C(=O)NCC(=O)NCC(N)=O)[C@@H](C)CC [LL(Dap[Alloc]9)-NH2 (50)] ({Octanoyl(7-Me)}-[dS][dY][dW][dOrn][Orn]G[dOrn]W[Dap](Alloc)INGG-NH2)	4	2 (≈ 1.18 µM)	2	4	>32	8	4
CCC(C)CCC(=O)N[C@H](CC(N)=O)C(=O)N[C@H](Cc1ccc(O)cc1)C(=O)N[C@H](Cc1c[nH]c2ccccc12)C(=O)N[C@H](CCCN)C(=O)N[C@@H](CCCN)C(=O)NCC(=O)N[C@H](CCCN)C(=O)N[C@@H](Cc1c[nH]c2ccccc12)C(=O)N[C@@H](CCSC)C(=O)N[C@H](C(=O)NCC(N)=O)[C@@H](C)CC (some centres unmarked) [Δ12LB (Met9)-NH2 (55)] ({Hexanoyl(4ξ-Me)}-[dN][dY][dW][dOrn][Orn]G[dOrn]WMIG-NH2)	4	2 (≈ 1.35 µM)	4	4	>32	4	4
CCC(C)CCC(=O)N[C@H](CC(N)=O)C(=O)N[C@H](Cc1ccc(O)cc1)C(=O)N[C@H](Cc1c[nH]c2ccccc12)C(=O)N[C@H](CCCN)C(=O)N[C@@H](CCCN)C(=O)NCC(=O)N[C@H](CCCN)C(=O)N[C@@H](Cc1c[nH]c2ccccc12)C(=O)N[C@@H](CN)C(=O)N[C@H](C(=O)NCC(N)=O)[C@@H](C)CC (some centres unmarked) [Δ12LB (Dap9)-NH2 (64)] ({Hexanoyl(4ξ-Me)}-[dN][dY][dW][dOrn][Orn]G[dOrn]W[Dap]IG-NH2)	16	>32	8	8	>32	4	>32
